Assay results as given in PubChem BioAssay (NCI).
“And” between values parts separate entries of the source, which are not always exact repeats. Equal values may be shown once.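 Growth conditions: 96-well plates. Treatment: test compound, 48 hours, 5 concentrations. Analysis: linear interpolation between bracketing concentrations; unreached endpoints set to highest concentration. At the GI50, growth is halved. TGI is the concentration that stops growth completely.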

Assays:
Assay in all cases: NCI tumour cell line growth inhibition, 48 h
UACC-62 melanoma = system: UACC-62 melanoma
DMS 114 small cell lung = system: DMS 114 small cell lung
LXFL 529 NSCLC = system: LXFL 529 NSCLC
SNB-75 CNS = system: SNB-75 CNS
NCI-H226 lung = system: NCI-H226 lung
RXF 393 renal = system: RXF 393 renal
HOP-62 NSCLC = system: HOP-62 NSCLC
KM20L2 colon = system: KM20L2 colon
786-0 renal = system: 786-0 renal
SK-MEL-5 melanoma = system: SK-MEL-5 melanoma

| SMILES | TGI (UACC-62 melanoma) | TGI (DMS 114 small cell lung) [µM] | TGI (LXFL 529 NSCLC) [µM] | TGI (SNB-75 CNS) | TGI (NCI-H226 lung) | TGI (RXF 393 renal) | TGI (HOP-62 NSCLC) | TGI (KM20L2 colon) [µM] | TGI (786-0 renal) | TGI (SK-MEL-5 melanoma) | GI50 (UACC-62 melanoma) | GI50 (SNB-75 CNS) [µM] | GI50 (NCI-H226 lung) | GI50 (RXF 393 renal) [µM] | GI50 (SK-MEL-5 melanoma) [µM] |
| --- | --- | --- | --- | --- | --- | --- | --- | --- | --- | --- | --- | --- | --- | --- | --- |
| O=C(Cc1ccccc1)Oc1ccc2c(-c3ccccc3)c(C(=O)Nc3ccc(Cl)cc3)c(=O)oc2c1 | > 100 µM | > 100 | > 100 | > 100 µM | > 100 µM | > 100 µM | > 100 µM | > 100 | > 100 µM | > 100 µM |  |  |  |  |  |
| COc1ccc(-c2cc(C(=O)Nc3cccc(C(F)(F)F)c3)[nH]c(=S)n2)cc1 | > 100 µM | > 100 | > 100 | > 100 µM | > 100 µM | > 100 µM | > 100 µM | > 100 | > 100 µM | > 100 µM |  |  |  |  |  |
| CC(NC(=O)c1ccccc1)C(=O)N(Cc1ccccc1)Cc1ccccc1 (stereo not drawn) | 30.7 µM | 53.8 | 53.4 | > 100 µM | 56.3 µM | 98.4 µM | 66.4 µM | 90.4 | > 100 µM | 44.9 µM |  |  |  |  |  |
| O=c1cc2n(c(=O)[nH]1)C1OC(C(O)C1O)[C@@H]2CCO (stereo partly drawn) | > 100 µM | > 100 | > 100 |  |  | > 100 µM | > 100 µM | > 100 | > 100 µM | > 100 µM |  |  |  |  |  |
| CS(=O)(=O)C1S(=O)(=O)OCCOS1(=O)=O | > 100 µM | > 100 | > 100 | > 100 µM | > 100 µM | > 100 µM | > 100 µM | > 100 | > 100 µM | > 100 µM |  |  |  |  |  |
| COc1ccc(OC)c(/C=C/[N+](=O)[O-])c1 | 5.34 µM and 12.1 µM | 11.9 | 4.83 | 12.9 µM and 11.8 µM | 4.41 µM and 10.2 µM | 3.59 µM and 3.54 µM | 8.27 µM and 9.56 µM | 9.34 | 4.09 µM and 3.21 µM | 4.29 µM and 6.58 µM | 1.98 µM and 4.37 µM | 5.3 | 1.93 µM and 4.06 µM | 1.8 | 2.06 |
| CN(C)CCNC(=O)c1ccc2ccc3cccnc3c2n1 | 30.4 µM | 25.6 | > 100 | 34.4 µM | 39.6 µM | 27.3 µM | 63.1 µM | 72 | > 100 µM | 28.3 µM |  |  |  |  |  |
| CCCCN(CC)C(=O)C(=O)C1C(=O)Nc2ccccc2S1=O (stereo not drawn) | > 100 µM | > 100 | > 100 | > 100 µM | > 100 µM | > 100 µM | > 100 µM | > 100 | > 100 µM | > 100 µM |  |  |  |  |  |
| Cc1cccc(C)c1NC(=O)CCC(=O)NNC(=O)c1cc(O)c2ccccc2c1 | 71.3 µM | 65.2 | > 100 | > 100 µM | > 100 µM | > 100 µM | > 100 µM | > 100 | > 100 µM | 84.6 µM |  |  |  |  |  |
